According to ChEMBL document CHEMBL1201862, “PubChem BioAssay data set” (2004):
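Following 48 hours of exposure in 96-well plates, responses at five concentrations were used to interpolate endpoints linearly. GI50 marks 50% less growth.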 Calls of active or inactive are those of the source. Cut-off read from the data, not from the text of the source: active = GI50 up to about 1.1 µM and inactive = higher.

Experiments:
Experiment in all cases: NCI-60 cell line screen, 48 h
[1] = system: NCI-H23
[2] = system: Hs-578T
[3] = system: ACHN
[4] = system: TK-10
[5] = system: SF-539
[6] = system: OVCAR-5
[7] = system: CAKI-1
[8] = system: SK-MEL-5
[9] = system: SK-MEL-2
[10] = system: SR
[11] = system: NCI-H226
[12] = system: HL-60
[13] = system: K562
[14] = system: MOLT-4
[15] = system: T47D
[16] = system: 786-0
[17] = system: CCRF-CEM

Measured: GI50

CCn1nc(C)c2c1C(=O)NCC(=O)N2
inactive: [1] > 100 µM | [2] > 100 µM | [3] > 100 µM | [4] > 100 µM | [5] > 100 µM | [6] > 100 µM | [7] > 100 µM | [8] > 100 µM

C=CCN1C(=O)/C(=C/c2ccco2)N=C1SC1OC(COC(C)=O)C(OC(C)=O)C(OC(C)=O)C1OC(C)=O (stereo not drawn)
inactive: [1] > 100 µM | [9] > 100 µM | [10] 38.9 µM | [3] > 100 µM | [11] 78.3 µM | [4] > 100 µM | [12] 13.2 µM | [13] 39.8 µM | [5] > 100 µM | [6] > 100 µM | [7] > 100 µM | [8] > 100 µM | [14] 32.7 µM

CS/C1=C(\c2ccc(C)cc2)N(c2ccccc2)C(=O)C(=O)N(c2ccccc2)/C(c2ccc(C)cc2)=C(/SC)SS1
inactive: [1] > 100 µM | [9] > 100 µM | [10] > 100 µM | [3] > 100 µM | [4] > 100 µM | [12] > 100 µM | [13] > 100 µM | [5] > 100 µM | [15] > 100 µM | [6] > 100 µM | [16] > 100 µM | [7] > 100 µM | [17] > 100 µM | [14] > 100 µM

CC(C)Oc1c(O)c2c3c(oc(=O)n3C=CC2c2ccccc2F)c1OC(C)C (stereo not drawn)
inactive: [1] 30.5 µM | [9] 15.5 µM | [10] 16.7 µM | [2] 75.7 µM | [3] 35.7 µM | [11] 32.6 µM | [4] 40.6 µM | [12] 20.1 µM | [13] 30.5 µM | [5] 22.5 µM | [6] 20 µM | [16] 33.4 µM | [7] 38.5 µM | [17] 24.8 µM | [8] 18.4 µM | [14] 18.7 µM

CSC1=N/C(=C\c2ccc(C)cc2)C(=O)N1CN1CCCCC1
inactive: [1] > 100 µM | [9] > 100 µM | [10] 89.7 µM | [2] 56.5 µM | [3] 59.6 µM | [11] > 100 µM | [4] > 100 µM | [13] 74 µM | [6] > 100 µM | [16] 88.7 µM | [8] > 100 µM | [14] > 100 µM

CSc1nncc2[nH]c(C)nc12
inactive: [1] > 100 µM | [9] > 100 µM | [3] > 100 µM | [11] > 100 µM | [4] > 100 µM | [12] > 100 µM | [13] > 100 µM | [5] > 100 µM | [15] > 100 µM | [6] > 100 µM | [16] > 100 µM | [7] > 100 µM | [17] > 100 µM | [8] > 100 µM | [14] > 100 µM
